Patent US20260216238A1, “TETRATHIOMOLYBDIC ACID FOR USE IN TREATING COPPER METABOLISM-ASSOCIATED DISEASES OR DISORDERS (WILSON DISEASE)” (Alexion Pharmaceuticals, Inc., priority 2023, published 2026)

How the values were obtained:
[1] = test system: patients with Wilson disease (WD); conditions: FIG. 23; TTM versus SoC chelator therapy
From the text: Urine samples were collected for analysis of urine copper and molybdenum.

patients with WD = conditions: cited from earlier work
[2] = test system: patients with Wilson disease (WD); assay: Unified Wilson Disease Rating Scale (UWDRS) Part II total score (disability); format: in vivo, human; conditions: for UWDRS Part II (0-40) change from baseline, Mean (SD): pooled Studies 301 and 201; for UWDRS Part II (0-40) change from baseline, LSM / UWDRS Part II (0-40) change from baseline, Mean: Study 301 TTM long term set
From the text: Unified Wilson Disease Rating Scale (Parts I, II, and III): The UWDRS is a clinical rating scale designed to evaluate the neurological manifestations of WD that generally can be divided into 3 movement disorder syndromes: dystonic, ataxic, and Parkinsonian syndrome. The UWDRS comprises 3 parts: UWDRS Part I (level of consciousness, item 1), UWDRS Part II (a patient-reported review of daily activity items [disability], items 2 to 11), and UWDRS Part III (a detailed neurological examination, items 12 to 34).
The UWDRS Part I and Part III were assessed by a neurologist who is blinded to the treatment randomization, while UWDRS Part II may be reported to a non-blinded member of the study team by the patient, family member, or caregiver. The UWDRS has not been formally evaluated in adolescents. However, the components of Part I (level of consciousness), Part II (patient or caregiver-reported disability) and Part III (neurologic examination findings) were not fundamentally different between adults and adolescents. Patients aged 12 years and older were expected to be able to comply with UWDRS assessments.
Pooled results from all such participants will be integrated together into one timeline to allow analyses of changes in UWDRS, long-term copper control, and long-term safety laboratory data.

[3] = test system: patients with Wilson disease (WD); assay: Study 301: adverse events in participants who switched from SoC to TTM in the Extension Period; conditions: SoC: Weeks 0-48, N=70; TTM after switch: Weeks 49-96, N=61
[4] = human, in vivo
[5] = test system: patients with Wilson disease (WD); assay: Clinical Global Impression-Improvement scale (CGI-I); format: in vivo, human; conditions: for Transformed CGI-I (−3 to 3), LSM / Transformed CGI-I (−3 to 3), Mean: Study 301 TTM long term set
From the text: (§1) Clinical Global Impression-[…]: The Clinical Global Impression (CGI) rating scales were commonly used measures of symptom severity, treatment response, and the efficacy of treatments in treatment studies of adult and pediatric patients with mental disorders.
While transformed CGI-I (TCGI-I) assesses how the WD patients' condition changed compared to baseline, CGI-I may indicate the overall clinical improvement of the patients in the study compared to baseline for each treatment arm.

[6] = test system: participants with cirrhosis at baseline
From the text: Study 205 is registered with ClinicalTrials.gov, number NCT04422431, and incorporated by reference in its entirety.

[7] = test system: patients with Wilson disease (WD); assay: Clinical Global Impression-Severity scale (CGI-S); format: in vivo, human; conditions: for CGI-S (1 to 7, 1 is normal) change from baseline, LSM / CGI-S (1 to 7, 1 is normal) change from baseline, Mean: Study 301 TTM long term set
From the text: as §1
The Clinical Global Impression-Severity scale (CGI-S) is a 7-point scale that requires the clinician to rate the severity of the patient's illness at the time of assessment, relative to the clinician's past experience with patients who have the same diagnosis. Considering total clinical experience, a patient was assessed on severity of illness at the time of rating as: 1, normal, not at all ill; 2, borderline ill; 3, mildly ill; 4, moderately ill; 5, markedly ill; 6, severely ill; or 7, extremely ill.

[8] = Subpopulation E, Week 48, TTM N=78, SoC N=39
[9] = Subpopulation E, Baseline, TTM N=104, SoC N=56
[10] = Subpopulation E, Week 48, TTM N=89, SoC N=47

bis-choline tetrathiomolybdate [TTM]
24-hour urinary copper [1]: lower with TTM than SoC chelator therapy | reduction of mean serum cNCCcorrected compared with baseline (patients with WD; Study 201, Week 24, p<0.0001): 72% | patients with reversible liver function test elevations (patients with WD; human, in vivo): 39% | UWDRS Part II score change (mean) ([2]; 0-48W, symptomatic patients): −1.7 | UWDRS Part II (0-40), Change from Baseline at 48 weeks, LSM ([2]; Study 301 Full Analysis Set): −0.1 | UWDRS Part II (0-40), Change from Baseline at 48 weeks, Mean ([2]; Study 301 Full Analysis Set): −0.6 | UWDRS Part II (0-40) change from baseline, Mean (SD) ([2]; TTM exposure 4 weeks): −0.3 (2.28) | UWDRS Part II (0-40) change from baseline, Mean (SD) ([2]; TTM exposure 12 weeks): −0.4 (2.76) | UWDRS Part II (0-40) change from baseline, Mean (SD) ([2]; TTM exposure 24 weeks): −0.4 (3.42) | UWDRS Part II (0-40) change from baseline, Mean (SD) ([2]; TTM exposure 36 weeks): −0.9 (4.11) | UWDRS Part II (0-40) change from baseline, Mean (SD) ([2]; TTM exposure 48 weeks): −1.2 (4.24) | UWDRS Part II (0-40) change from baseline, Mean (SD) ([2]; TTM exposure 60 weeks): −1.4 (4.35) | UWDRS Part II (0-40) change from baseline, Mean (SD) ([2]; TTM exposure 72 weeks): −1.9 (4.74) | UWDRS Part II (0-40) change from baseline, Mean (SD) ([2]; TTM exposure 96 weeks): −2.5 (6.11) | UWDRS Part II (0-40) change from baseline, Mean (SD) ([2]; TTM exposure 120 weeks): −3.1 (6.82) | UWDRS Part II (0-40) change from baseline, Mean (SD) ([2]; TTM exposure 144 weeks): −3.3 (6.61) | UWDRS Part II (0-40) change from baseline, Mean (SD) ([2]; TTM exposure 168 weeks): −6.2 (10.17) | UWDRS Part II (0-40) change from baseline, Mean (SD) ([2]; TTM exposure 192 weeks): −5.9 (9.88) | UWDRS Part II (0-40) change from baseline, Mean (SD) ([2]; TTM exposure 216 weeks): −7.1 (10.90) | UWDRS Part II (0-40) change from baseline, Mean (SD) ([2]; TTM exposure 240 weeks): −6.6 (10.09) | UWDRS Part II (0-40) change from baseline, Mean (SD) ([2]; TTM exposure 264 weeks): −6.2 (9.02) | UWDRS Part II (0-40), Difference at 48 weeks, LSM ([2]; TTM vs SoC, P 0.4430): 0.4 | UWDRS Part II (0-40) change from baseline, LSM ([2]; Week 24): −0.4 | UWDRS Part II (0-40) change from baseline, Mean ([2]; Week 24): −0.3 | UWDRS Part II (0-40) change from baseline, LSM ([2]; Week 48): −0.7 | UWDRS Part II (0-40) change from baseline, Mean ([2]; Week 48): −0.7 | UWDRS Part II (0-40) change from baseline, LSM ([2]; Week 72): −1.0 | UWDRS Part II (0-40) change from baseline, Mean ([2]; Week 72): −1.2 | UWDRS Part II (0-40) change from baseline, LSM ([2]; Week 96): −1.1 | UWDRS Part II (0-40) change from baseline, Mean ([2]; Week 96): −1.1 | UWDRS Part II (0-40) change from baseline, LSM ([2]; Week 120): −1.7 | UWDRS Part II (0-40) change from baseline, Mean ([2]; Week 120): −1.4 | UWDRS Part II (0-40) change from baseline, LSM ([2]; Week 144): −2.0 | UWDRS Part II (0-40) change from baseline, Mean ([2]; Week 144): −2.0 | Musculoskeletal and connective tissue disorders, E (events) [3]: 7 | Musculoskeletal and connective tissue disorders, participants with AE [3]: 7 (11.5) N (%) | effect of age on plasma total molybdenum clearance [4]: not a significant covariate | T-CGI-I (−3 to 3, −3 is very much improved) at 48 weeks, LSM ([5]; Study 301 Full Analysis Set): −0.7 | T-CGI-I (−3 to 3, −3 is very much improved) at 48 weeks, Mean ([5]; Study 301 Full Analysis Set): −0.7 | Transformed Global Improvement (CGI-I), Change from Baseline, LSM ([5]; Subpopulation E, Week 48): −0.7 | Transformed Global Improvement (CGI-I), Change from Baseline, LSM Diff (TTM vs SoC) ([5]; Subpopulation E, Week 48): −0.5 | Transformed Global Improvement (CGI-I), Change from Baseline, Max [5, 8]: 1 | Transformed Global Improvement (CGI-I), Change from Baseline, Mean [5, 8]: −0.7 | Transformed Global Improvement (CGI-I), Change from Baseline, Median [5, 8]: 0.0 | Transformed Global Improvement (CGI-I), Change from Baseline, Min [5, 8]: −3, | Transformed Global Improvement (CGI-I), Change from Baseline, Q1 [5, 8]: −1.0, | Transformed Global Improvement (CGI-I), Change from Baseline, Q3 [5, 8]: 0.0 | T-CGI-I, Difference at 48 weeks, LSM ([5]; TTM vs SoC, P 0.0316): −0.3 | CGI-I, LSM difference (SE) TTM versus SoC ([5]; W0-W48, cohort 1 incomplete response or intolerant, p=0.0051): −0.4 (0.15) | Transformed CGI-I (−3 to 3), LSM ([5]; Week 24): −0.6 | Transformed CGI-I (−3 to 3), Mean ([5]; Week 24): −0.5 | Transformed CGI-I (−3 to 3), LSM ([5]; Week 48): −0.8 | Transformed CGI-I (−3 to 3), Mean ([5]; Week 48): −0.7 | Transformed CGI-I (−3 to 3), LSM ([5]; Week 72): −0.6 | Transformed CGI-I (−3 to 3), Mean ([5]; Week 72): −0.5 | Transformed CGI-I (−3 to 3), LSM ([5]; Week 96): −0.6 | Transformed CGI-I (−3 to 3), Mean ([5]; Week 96): −0.5 | Transformed CGI-I (−3 to 3), LSM ([5]; Week 120): −0.7 | Transformed CGI-I (−3 to 3), Mean ([5]; Week 120): −0.7 | Transformed CGI-I (−3 to 3), LSM ([5]; Week 144): −0.8 | Transformed CGI-I (−3 to 3), Mean ([5]; Week 144): −0.7 | participants with cirrhosis at baseline who maintained liver function (albumin levels) ([6]; in vivo): 87% | cirrhotic participants whose albumin levels returned to the normal range ([6]; of the 13 who experienced changes in liver function): 7 participants | CGI-S (1-7, 1 is normal), Change from Baseline at 48 weeks, LSM ([7]; Study 301 Full Analysis Set): −0.3 | CGI-S (1-7, 1 is normal), Change from Baseline at 48 weeks, Mean ([7]; Study 301 Full Analysis Set): −0.5 | CGI-S, Max [7, 9]: 6 | CGI-S, Mean [7, 9]: 2.9 | CGI-S, Min [7, 9]: 1, | CGI-S, Change from Baseline, LSM ([7]; Subpopulation E, Week 48): −0.4 | CGI-S, Change from Baseline, LSM Diff (SE) (TTM vs SoC) ([7]; Subpopulation E, Week 48): −0.2 (0.13) | CGI-S, Change from Baseline, Max [7, 10]: 1 | CGI-S, Change from Baseline, Mean [7, 10]: −0.4 | CGI-S, Change from Baseline, Median [7, 10]: 0.0 | CGI-S, Change from Baseline, Min [7, 10]: −3, | CGI-S, Change from Baseline, Q1 [7, 10]: −1.0, | CGI-S, Change from Baseline, Q3 [7, 10]: 0.0 | CGI-S, Difference at 48 weeks, LSM ([7]; TTM vs SoC, P 0.2290): −0.2 | CGI-S (1 to 7, 1 is normal) change from baseline, LSM ([7]; Week 24): −0.3 | CGI-S (1 to 7, 1 is normal) change from baseline, Mean ([7]; Week 24): −0.2 | CGI-S (1 to 7, 1 is normal) change from baseline, LSM ([7]; Week 48): −0.4 | CGI-S (1 to 7, 1 is normal) change from baseline, Mean ([7]; Week 48): −0.5 | CGI-S (1 to 7, 1 is normal) change from baseline, LSM ([7]; Week 72): −0.5 | CGI-S (1 to 7, 1 is normal) change from baseline, Mean ([7]; Week 72): −0.6 | CGI-S (1 to 7, 1 is normal) change from baseline, LSM ([7]; Week 96): −0.5 | CGI-S (1 to 7, 1 is normal) change from baseline, Mean ([7]; Week 96): −0.6 | CGI-S (1 to 7, 1 is normal) change from baseline, LSM ([7]; Week 120): −0.7 | CGI-S (1 to 7, 1 is normal) change from baseline, Mean ([7]; Week 120): −0.6 | CGI-S (1 to 7, 1 is normal) change from baseline, LSM ([7]; Week 144): −0.6 | CGI-S (1 to 7, 1 is normal) change from baseline, Mean ([7]; Week 144): −0.6
